Data on 15 molecules can be found in ChEMBL document CHEMBL5360552, “Potential RNA-dependent RNA polymerase (RdRp) inhibitors as prospective drug candidates for SARS-CoV-2” (Eur J Med Chem, 2023).

The subject of data set [1] is SARS-CoV-2. Put plainly: Antiviral activity against SARS-CoV-2 infected in african green monkey Vero E6 cells assessed as reduction in viral replication. Format: functional, organism-based. Particulars: Severe acute respiratory syndrome coronavirus 2, Vero C1008.
The target of data set [2] is Replicase polyprotein 1ab (Severe acute respiratory syndrome coronavirus 2) (UniProt P0DTD1). The data set can be described thus: Inhibition of SARS-CoV-2 RdRp transfected in HEK293T cells at 10 microM incubated for 24 hrs by Gluc-Activity assay relative to control. Format: cell-based.
Data set [3] is described as follows: Cytotoxicity against HEK293T cells assessed as cell growth inhibition incubated for 24 hrs by CCK-8 assay. The data set is classed as toxicity, cell-based, HEK-293T. Particulars: human.
The nature of data set [4]: Therapeutic index, ratio of CC50 for HEK293T cells to EC50 for inhibition of SARS-CoV-2 RdRp. The note with it: human, read-out: TI. Format: toxicity.
Data set [5] deals with SARS-CoV-2. Put plainly: Antiviral activity against SARS-CoV-2 infected in human Calu-3 cells assessed as reduction in viral yield incubated for 48 hrs by RT-PCR. Format: functional, organism-based. Particulars: Severe acute respiratory syndrome coronavirus 2, Calu-3, 48 h.
The nature of data set [6]: Cytotoxicity against human Calu-3 cells assessed as cell growth inhibition incubated for 4 hrs by XTT assay. The data set is classed as toxicity, cell-based.
Data set [7] relates to SARS-CoV-2. Put plainly: Antiviral activity against SARS-CoV-2 infected in african green monkey Vero E6 cells pretreated for 1 hrs followed by viral infection for 2 days post treatment by qRT-PCR. Format: functional, organism-based, Severe acute respiratory syndrome coronavirus 2.
Data set [8] has as its system SARS-CoV-2. Put plainly: Antiviral activity against SARS-CoV-2 infected in human Calu-3 cells pretreated for 1 hrs followed by viral infection for 2 days post treatment by qRT-PCR. Format: functional, organism-based. The note with it: Severe acute respiratory syndrome coronavirus 2, Calu-3.
Data set [9] in a line: Cytotoxicity against african green monkey Vero E6 cells assessed as inhibition of cell growth incubated for 4 days by MTS assay. Format: toxicity, cell-based, Vero C1008. Particulars: chlorocebus sabaeus, time 4 day.
Data set [10] can be described thus: Cytotoxicity against human Calu-3 cells assessed as inhibition of cell growth incubated for 4 days by MTS assay. The note with it: time 4 day. The data set is classed as toxicity, cell-based.
Data set [11] has as its system SARS-CoV-2. Put plainly: Antiviral activity against SARS-CoV-2 infected in african green monkey Vero E6 cells assessed as reduction in viral yield at 20 uM incubated for 48 hrs post infection by qRT-PCR relative to control. The data set is classed as functional, Severe acute respiratory syndrome coronavirus 2. On the set-up: scale not given: the % may be the effect or the level left.

A short description of another data set: in vitro. The note with it: human, Calu-3 cells.
Data set [12] is described as follows: Cytotoxicity against african green monkey Vero E6 cells assessed as inhibition of cell growth by CCK-8 assay. Format: toxicity, cell-based, Vero C1008. Particulars: chlorocebus sabaeus.
For data set [13], the system named is SARS-CoV-2. Put plainly: Antiviral activity against wild type SARS-CoV-2 infected in human Calu-3 cells of organoid assessed as intracellular viral RNA level measured after 48 hrs by qRT-PCR analysis. Format: functional, organism-based. The note with it: Severe acute respiratory syndrome coronavirus 2, Calu-3, 48 h.
Data set [14] in a line: Selectivity index, ratio of CC50 for african green monkey Vero E6 cells to EC50 for SARS-CoV-2 infected in African Green monkey Vero E6 cells. Format: toxicity, cell-based, Vero C1008. The note with it: read-out: Selectivity Index.
Data set [15] concerns SARS-CoV-2. The data set can be described thus: Antiviral activity against SARS-CoV-2 WA1/2020 infected in human Calu-3 cells preincubated for 2 hrs followed by viral infection and measured after 48 hrs by microscopy analysis. The note with it: Severe acute respiratory syndrome coronavirus 2, WA1/2020, Calu-3. The data set is classed as functional, organism-based.
For data set [16], the system named is SARS-CoV-2. Put plainly: Antiviral activity against SARS-CoV-2 WA1/2020 infected in human Caco-2 cells preincubated for 24 hrs followed by viral infection and measured after 3 day post infection by viral yield reduction assay. Format: functional. The note with it: Severe acute respiratory syndrome coronavirus 2, WA1/2020, Caco-2, 96 h; time 4 day.
In data set [17] the test system is SARS-CoV-2. Put plainly: Antiviral activity against SARS-CoV-2 WA1/2020 infected in african green monkey Vero 76 cells preincubated for 24 hrs followed by viral infection and measured after 3 day post infection by viral yield reduction assay. The data set is classed as functional. The note with it: Severe acute respiratory syndrome coronavirus 2, WA1/2020, Vero 76, 96 h; time 4 day.

Data set [18] relates to SARS-CoV-2. The data set can be described thus: Antiviral activity against SARS-CoV-2 WA1/2020 infected in african green monkey Vero E6 cells preincubated for 24 hrs followed by viral infection and measured after 5 day post infection by cytopathic effect assay. The data set is classed as functional. Particulars: Severe acute respiratory syndrome coronavirus 2, WA1/2020, Vero C1008, 144 h; time 6 day.

The nature of data set [19]: Cytotoxicity against human Caco-2 cells assessed as cell growth inhibition by neutral red cytopathic assay. The data set is classed as toxicity, cell-based.
Data set [20] in a line: Cytotoxicity against african green monkey Vero 76 cells assessed as cell growth inhibition by neutral red cytopathic assay. Format: toxicity, cell-based. Particulars: chlorocebus sabaeus.
Data set [21] in a line: Cytotoxicity against human Calu-3 cells assessed as cell growth inhibition by neutral red cytopathic assay. The data set is classed as toxicity, cell-based.
A short description of data set [22]: Selectivity index, ratio of CC50 for human Caco-2 cells to EC90 for SARS-CoV-2 infected in human Caco-2 cells. The data set is classed as toxicity, cell-based. Particulars: read-out: Selectivity Index.
A short description of data set [23]: Selectivity index, ratio of CC50 for african green monkey Vero 76 cells to EC90 for SARS-CoV-2 infected in African Green monkey Vero 76 cells. Format: toxicity, cell-based. Particulars: read-out: Selectivity Index.
Data set [24] in a line: Selectivity index, ratio of CC50 for human Calu-3 cells to EC90 for SARS-CoV-2 infected in human Calu-3 cells. The data set is classed as toxicity, cell-based. The note with it: read-out: Selectivity Index.
The nature of data set [25]: Selectivity index, ratio of CC50 for african green monkey Vero 76 cells to EC90 for SARS-CoV-2 infected in African Green monkey Vero 76 cells assessed as reduction in cytopathic effect. The data set is classed as toxicity, cell-based. The note with it: read-out: Selectivity Index.

Each structure is given as a SMILES string. pEC50, pIC50: −log10 of the molar value. A value given as a limit tells only on which side of the number the result lay.

Description for in vitro: Selectivity index, ratio of CC50 for human Calu-3 cells to EC50 for SARS-CoV-2 infected in human Calu-3

On to `Cc1cccc(C)c1OCC(=O)N[C@@H](Cc1ccccc1)[C@@H](O)C[C@H](Cc1ccccc1)NC(=O)[C@H](C(C)C)N1CCCNC1=O` [LOPINAVIR], for which the pIC50 in the data set on SARS-CoV-2 [1] is 4.94.
In data set [2], `CC(C)(C)OC(=O)N1CCN(c2ccc3cccc(OCC(=O)NCc4ccccc4)c3n2)CC1` had an inhibition of 95%. Moreover, in data set [3], the CC50 at 24 h is 70.8 µM. Further, the selectivity ratio in [4] was 65.5.
On to `COC(=O)N[C@H](C(=O)N1CCC[C@H]1c1ncc(-c2ccc(-c3ccc(-c4cnc([C@@H]5CCCN5C(=O)[C@@H](NC(=O)OC)C(C)C)[nH]4)cc3)cc2)[nH]1)C(C)C`, for which the pEC50 with SARS-CoV-2 [5] is 5.96. Moreover, in [6], the cytotoxic concentration (CC50) at 4 h worked out at 38 µM.
Take `O=C(O)[C@H]1O[C@@H](Oc2cc3oc(-c4ccccc4)cc(=O)c3c(O)c2O)[C@H](O)[C@@H](O)[C@@H]1O` [BAICALIN]: the pEC50 is 5.05 in the data set on SARS-CoV-2 [7] (Severe acute respiratory syndrome coronavirus 2, Vero C1008) and 5.10 in the data set with SARS-CoV-2 [8]. Besides, the CC50 at 96 h in data set [9] and in [10] was greater than 100 µM each time. Further, in the data set with SARS-CoV-2 [11], the Activity turned out to be 98%.
Turning to `NC(=O)c1ncn([C@@H]2O[C@H](CO)[C@@H](O)[C@H]2O)n1` [RIBAVIRIN], the pEC50 in the data set with SARS-CoV-2 [5] is 5.15. Moreover, the CC50 at 4 h in data set [6] is 160 µM. The selectivity ratio in “in vitro” was 16.
Turning to `CCC(CC)COC(=O)[C@H](C)N[P@](=O)(OC[C@H]1O[C@@](C#N)(c2ccc3c(N)ncnn23)[C@H](O)[C@@H]1O)Oc1ccccc1`, in data set [12], the CC50 is greater than 100 µM. Also, in the data set with SARS-CoV-2 [1], the pIC50 is 5.14.
As for `CC(C)C(=O)OC[C@H]1O[C@@H](n2cc/c(=N\O)[nH]c2=O)[C@H](O)[C@@H]1O` [MOLNUPIRAVIR], in the data set on SARS-CoV-2 [13], the pIC50 was 5.71.
With `CC(C)OC(=O)[C@H](C)N[P@](=O)(OC[C@H]1O[C@@H](n2ccc(=O)[nH]c2=O)[C@](C)(F)[C@@H]1O)Oc1ccccc1` [SOFOSBUVIR], the pEC50 in the data set on SARS-CoV-2 [5] is 5.14. Further, the CC50 at 4 h in [6] was determined as 512 µM.
Consider `COc1ccc(-c2cc(=O)c3c(O)cc(O)c(-c4cc(-c5cc(=O)c6c(O)cc(O)cc6o5)ccc4OC)c3o2)cc1` [ISOGINKGETIN], for which the pIC50 in the data set with SARS-CoV-2 [1] was 4.64.
As for `O=c1cc(-c2ccccc2)oc2cc(O)c(O)c(O)c12` [BAICALEIN], in the data set on SARS-CoV-2 [7] (Severe acute respiratory syndrome coronavirus 2, Vero C1008, 48 h, time 2 day), the EC90 amounted to 7.6 µM. Also, in the data set with SARS-CoV-2 [8], the pEC50 was 5.92. Also, the values for the CC50 at 96 h in data set [9] and in data set [10] were 8.6 µM and 91 µM, respectively. In addition, in the data set on SARS-CoV-2 [11], the Activity worked out at 99.8%.
Consider `CC(C)(C)OC(=O)N[C@@H]1CCN(c2ccc3cccc(OCC(=O)NCc4ccccc4)c3n2)C1`, for which the inhibition in data set [2] came to 74.9%. The CC50 at 24 h in [3] was 79.4 µM. Also, in data set [4], the selectivity ratio turned out to be 20.3.
Consider `NC(=O)c1nc(F)c[nH]c1=O`, for which, in data set [12], the CC50 was greater than 400 µM. The selectivity ratio in data set [14] is 6.46.
`Nc1ncnc2c([C@@H]3N[C@H](CO)[C@@H](O)[C@H]3O)c[nH]c12` showed a pEC50 with SARS-CoV-2 [15] of 4.85. Besides, the EC90 turned out to be 14.2 µM in the data set with SARS-CoV-2 [16], 10.9 µM with SARS-CoV-2 [17] and 50.3 µM in the data set on SARS-CoV-2 [18]. The CC50 in data set [19] is 82.8 µM; in data set [20], greater than 296 µM; in [21] it was greater than 50 µM. In addition, the selectivity ratio was 5.8 in data set [22], greater than 27 in data set [23], greater than 3.5 in data set [24] and 5.8 in [25].
As for `CC(C)(C)OC(=O)N[C@H]1CCN(c2ccc3cccc(OCC(=O)NCc4ccccc4)c3n2)C1`, the inhibition in data set [2] was 92.8%. Further, the CC50 at 24 h in data set [3] turned out to be 72.4 µM. Moreover, in data set [4], the selectivity ratio worked out at 34.8.
With `CCN(CC)CCCC(C)Nc1ccnc2cc(Cl)ccc12` (stereo not given) [CHLOROQUINE], the pIC50 in the data set with SARS-CoV-2 [1] is 4.93.
